Inconclusive results and toxic doses are left out.

The test system of the assay is L1210 leukemia ip in BDF1 mice, survival T/C. In words: NCI In Vivo Anticancer Drug Screen. Data for tumor model L1210 Leukemia (intraperitoneal) in B6D2F1 (BDF1) mice. Conditions: endpoint: mean survival time, higher = longer survival. The essentials:
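Antitumor effect is assessed in tumor-bearing animals. Survival in the compound arm is compared with a vehicle-dosed control arm and expressed as their quotient.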

The mark [1] stands for this setting: dose: 100.0 mg/kg/injection, schedule: Q01DX009 (ip), vehicle: Klucel (hydroxypropylcellulose) (HPC).
Setting [2] is: dose: 200.0 mg/kg/injection, schedule: Q01DX009 (ip), vehicle: Klucel (hydroxypropylcellulose) (HPC).
Setting [3] is: dose: 100.0 mg/kg/injection, schedule: Q01DX009 (ip), vehicle: saline with Tween-80.
[4] abbreviates: dose: 100.0 mg/kg/injection, schedule: Q04DX003 (ip), vehicle: Klucel (hydroxypropylcellulose) (HPC).
The mark [5] stands for this setting: dose: 200.0 mg/kg/injection, schedule: Q04DX003 (ip), vehicle: Klucel (hydroxypropylcellulose) (HPC).
[6] abbreviates: dose: 400.0 mg/kg/injection, schedule: Q01DX009 (ip), vehicle: Klucel (hydroxypropylcellulose) (HPC).
Setting [7] is: dose: 400.0 mg/kg/injection, schedule: Q04DX003 (ip), vehicle: Klucel (hydroxypropylcellulose) (HPC).
The mark [8] stands for this setting: dose: 50.0 mg/kg/injection, schedule: Q01DX001 (ip), vehicle: carboxymethylcellulose (CMC).
Where [9] appears, read: dose: 100.0 mg/kg/injection, schedule: Q01DX001 (ip), vehicle: carboxymethylcellulose (CMC).
Setting [10] is: dose: 200.0 mg/kg/injection, schedule: Q01DX001 (ip), vehicle: carboxymethylcellulose (CMC).
Setting [11] is: dose: 400.0 mg/kg/injection, schedule: Q01DX001 (ip), vehicle: carboxymethylcellulose (CMC).
The mark [12] stands for this setting: dose: 100.0 mg/kg/injection, schedule: Q04DX003 (ip), vehicle: other.
The mark [13] stands for this setting: dose: 200.0 mg/kg/injection, schedule: Q04DX003 (ip), vehicle: other.
Where [14] appears, read: dose: 400.0 mg/kg/injection, schedule: Q04DX003 (ip), vehicle: other.

For `O=S1(=O)C2CCCC1(Cl)CCC2`, the T/C by setting is: (dose: 75.0 mg/kg/injection, schedule: Q01DX001 (ip), vehicle: saline) 107 % of control; (dose: 150.0 mg/kg/injection, schedule: Q01DX001 (ip), vehicle: saline) 102 % of control; (dose: 300.0 mg/kg/injection, schedule: Q01DX001 (ip), vehicle: saline) 93 % of control.

With `C=CCN(CC=C)C(=S)NC(=O)c1ccccc1`, the T/C reads like this: under setting [1], 110 % of control; under setting [2], 104 % of control.

With `CCOC(=O)CNC(=O)Oc1cccc2cccnc12`, the T/C by setting is: under setting [3], 103 % of control; (dose: 200.0 mg/kg/injection, schedule: Q01DX009 (ip), vehicle: saline with Tween-80) 101 % of control.

For `CC1CCCC(C)N1NC(=O)NCCCl` (centres undefined), the T/C under setting [1] is 100 % of control; the T/C under setting [4] is 100 % of control; the T/C under setting [2] is 102 % of control; the T/C under setting [5] is 100 % of control; the T/C under setting [6] is 102 % of control; the T/C under setting [7] was 97 % of control.

In the case of `O=S1(=O)c2ccccc2C2CC=CCC21` (centres undefined), the T/C was 98 % of control under setting [8], 98 % of control under setting [9], 98 % of control under setting [10] and 93 % of control under setting [11].

Turning to `CCN(CC)c1ccc2nc3ccc(N(CC)CC)cc3[n+](-c3ccccc3)c2c1`, the T/C is 111 % of control (dose: 3.0 mg/kg/injection, schedule: Q01DX009 (ip), vehicle: saline) and 115 % of control (dose: 6.0 mg/kg/injection, schedule: Q01DX009 (ip), vehicle: saline).

Turning to `CCS(=O)(=O)/C=C/c1ccc(NC(C)=O)cc1`, the T/C runs as follows: (dose: 100.0 mg/kg/injection, schedule: Q04DX002 (ip), vehicle: saline with Tween-80) 122 % of control; (dose: 200.0 mg/kg/injection, schedule: Q04DX002 (ip), vehicle: saline with Tween-80) 98 % of control; (dose: 400.0 mg/kg/injection, schedule: Q04DX002 (ip), vehicle: saline with Tween-80) 91 % of control.

As for `CC(C)(Cc1c[nH]c2ccccc12)NC(=O)c1ccccc1`, the T/C runs as follows: under setting [1], 90 % of control; under setting [4], 100 % of control; under setting [5], 98 % of control; under setting [6], 92 % of control; under setting [7], 98 % of control.

Take `C1=CC2CC1CC2/C=N\N=C\C1CC2C=CC1C2` (centres undefined): the T/C is, setting by setting: (dose: 100.0 mg/kg/injection, schedule: Q04DX002 (ip), vehicle: Klucel (hydroxypropylcellulose) (HPC)) 118 % of control; (dose: 200.0 mg/kg/injection, schedule: Q04DX002 (ip), vehicle: Klucel (hydroxypropylcellulose) (HPC)) 121 % of control.

For the compound `Cc1ccc(NC(N)=S)cc1`, the T/C reads like this: (dose: 25.0 mg/kg/injection, schedule: Q04DX003 (ip), vehicle: Klucel (hydroxypropylcellulose) (HPC)) 107 % of control; (dose: 50.0 mg/kg/injection, schedule: Q04DX003 (ip), vehicle: Klucel (hydroxypropylcellulose) (HPC)) 98 % of control; under setting [4], 101 % of control.

As for `NC(CSC(c1ccccc1)(c1ccccc1)c1ccc(Br)cc1)C(=O)O` (centres undefined), the T/C runs as follows: (dose: 3.13 mg/kg/injection, schedule: Q01DX009 (ip), vehicle: saline) 155 % of control; (dose: 6.25 mg/kg/injection, schedule: Q01DX009 (ip), vehicle: saline) 162 % of control; (dose: 12.5 mg/kg/injection, schedule: Q01DX009 (ip), vehicle: saline) 214 % of control; (dose: 25.0 mg/kg/injection, schedule: Q01DX009 (ip), vehicle: saline) 111 % of control; (dose: 75.0 mg/kg/injection, schedule: Q01DX001 (ip), vehicle: other) 105 % of control; (dose: 150.0 mg/kg/injection, schedule: Q01DX001 (ip), vehicle: other) 121 % of control.

Consider `Cc1nc(N)[nH]c(=O)c1CCCNc1cccc(C(F)(F)F)c1`, for which the T/C runs as follows: (dose: 100.0 mg/kg/injection, schedule: Q01DX001 (ip), vehicle: Klucel (hydroxypropylcellulose) (HPC)) 92 % of control; (dose: 200.0 mg/kg/injection, schedule: Q01DX001 (ip), vehicle: Klucel (hydroxypropylcellulose) (HPC)) 92 % of control; (dose: 400.0 mg/kg/injection, schedule: Q01DX001 (ip), vehicle: Klucel (hydroxypropylcellulose) (HPC)) 97 % of control.

In the case of `CCCC(O)(CCC)CC1=NC(C)(C)CO1`, the T/C is 87 % of control (dose: 100.0 mg/kg/injection, schedule: Q04DX003 (ip), vehicle: saline sonified); 98 % of control (dose: 200.0 mg/kg/injection, schedule: Q04DX003 (ip), vehicle: saline sonified); 95 % of control (dose: 400.0 mg/kg/injection, schedule: Q04DX003 (ip), vehicle: saline sonified).

Consider `CC(=O)Nc1c(Cl)c(Cl)c2c(c1Cl)C(O)c1cc(Cl)ccc1-2` (centres undefined), for which the T/C is 103 % of control under setting [9], 97 % of control under setting [10] and 114 % of control under setting [11].

For `Cc1ccc(S(=O)(=O)N2CCC=Cc3ccccc32)cc1`, the T/C was 110 % of control under setting [9], 102 % of control under setting [10] and 107 % of control under setting [11].

Consider `OCCSc1ccccc1`, for which the T/C runs as follows: under setting [12], 97 % of control; under setting [13], 103 % of control; under setting [14], 93 % of control.

With `CC(=O)NCCOc1ccc(N)cc1`, the T/C was 104 % of control (dose: 100.0 mg/kg/injection, schedule: Q04DX003 (ip), vehicle: saline); 98 % of control (dose: 200.0 mg/kg/injection, schedule: Q04DX003 (ip), vehicle: saline); 98 % of control (dose: 400.0 mg/kg/injection, schedule: Q04DX003 (ip), vehicle: saline).

`Cc1ccc([N+](=O)[O-])cc1NC(=O)NNC(=O)CNC(=O)Nc1ccc(F)cc1`: the T/C is 94 % of control (dose: 25.0 mg/kg/injection, schedule: Q01DX009 (ip), vehicle: saline with Tween-80); 86 % of control (dose: 50.0 mg/kg/injection, schedule: Q01DX009 (ip), vehicle: saline with Tween-80); 100 % of control under setting [3].

For the compound `CCNC(C)(C)C(SSSC(c1ccc(Cl)cc1)C(C)(C)NCC)c1ccc(Cl)cc1` (centres undefined), the T/C is, setting by setting: (dose: 50.0 mg/kg/injection, schedule: Q01DX009 (ip), vehicle: Klucel (hydroxypropylcellulose) (HPC)) 94 % of control; under setting [1], 91 % of control; (dose: 100.0 mg/kg/injection, schedule: Q01DX009 (ip), vehicle: other) 89 % of control.

Turning to `COc1cccc2c1N=c1c(Cl)c3c(c(Cl)c1O2)=Nc1c(OC)cccc1O3`, the T/C is, setting by setting: under setting [4], 106 % of control; under setting [5], 102 % of control; under setting [7], 113 % of control.

Turning to `CC12CC3CC1C2C3OC=O` (centres undefined), the T/C was 90 % of control under setting [8], 95 % of control under setting [9], 95 % of control under setting [10] and 101 % of control under setting [11].

In the case of `O=C(CC(=O)C(F)(F)F)c1cccs1.O=C(CC(=O)C(F)(F)F)c1cccs1.O=C(CC(=O)C(F)(F)F)c1cccs1.[Cr]`, the T/C was 91 % of control (dose: 100.0 mg/kg/injection, schedule: Q01DX001 (ip), vehicle: other); 97 % of control under setting [12]; 94 % of control (dose: 200.0 mg/kg/injection, schedule: Q01DX001 (ip), vehicle: other); 103 % of control under setting [13]; 96 % of control (dose: 400.0 mg/kg/injection, schedule: Q01DX001 (ip), vehicle: other); 94 % of control under setting [14].

Consider `O=C(N/N=C/c1ccccc1O)C(O)(c1ccccc1)c1ccccc1`, for which the T/C is, setting by setting: under setting [9], 101 % of control; under setting [10], 97 % of control; under setting [11], 97 % of control.

As to `CCCC/C(=N/Nc1ccc([N+](=O)[O-])cc1[N+](=O)[O-])c1ccc(Cl)cc1`, the T/C reads like this: (dose: 100.0 mg/kg/injection, schedule: Q01DX001 (ip), vehicle: saline) 98 % of control; (dose: 200.0 mg/kg/injection, schedule: Q01DX001 (ip), vehicle: saline) 88 % of control; (dose: 400.0 mg/kg/injection, schedule: Q01DX001 (ip), vehicle: saline) 102 % of control.

As for `CC12CCC(C(=O)CC1=O)C2(C)C` (centres undefined), the T/C was 100 % of control (dose: 100.0 mg/kg/injection, schedule: Q01DX009 (ip), vehicle: saline); 104 % of control (dose: 200.0 mg/kg/injection, schedule: Q01DX009 (ip), vehicle: saline); 96 % of control (dose: 400.0 mg/kg/injection, schedule: Q01DX009 (ip), vehicle: saline).

The values above are taken from PubChem BioAssay AID248 (DTP/NCI, 2004).
